Tests used:
In vivo mouse PK studies = settings: plasma, po, 10 mg/kg
Description: Example 222. (FIG. 14) PK results of selected compounds. (a) Plasma concentrations of MS102 and ML346 over 24 h after i.p. injection at 50 mg/kg dose. (b) Plasma concentrations of MS102 over 24 h using different administration routes: […]. (50 mg/kg) by. (c) Plasma concentrations of […]161-180 and XH153-182 over 8 h at 5 mg/kg dose by i.p. injection. (d) Plasma concentrations of XH161-172 over 24 h using different administration routes: […]) Plasma concentrations of XH161-180 over 24 h using different administration routes: […]. (10 mg/kg). Pharmacokinetic studies for ML364, MS102, MS1172, MS1180 and XH153-182 were performed by Sai Life Sciences Limited (India). Experiments were design with 3 mice/time point/compound. Animals were administered intraperitoneally, intravenously as slow bolus injection through tail vein, or through oral route with solution formulation of indicated compound at indicated dose. […] Blood samples (approximately 60 μL) were collected under light isoflurane anesthesia (Surgivet®) from a set of three mice at different time points. Immediately after blood collection, plasma was harvested by centrifugation at 4000 rpm, 10 min at 4° C., and samples were stored at -70±10° C. until bioanalysis. All samples were processed for analysis by protein precipitation method and analyzed with the fit-for-purpose LC-MS/MS method (LLOQ=1.01 ng/mL). […]

H460 and A375 cells = assay: Cell viability assays in H460 and A375 cells; format: cell-based; settings: FIGS. 9-11
Description: Example 217. (FIG. 9) Screening of selected USP2 inhibitors using cell viability assays. H460 cells were treated with […] of indicated compounds for 48 h, cell viabilities were indicated by the images of cell morphology. Example 218. (FIG. 10) Screening of selected USP2 inhibitors using cell viability assays. A375 cells were treated with indicated concentration of indicated compounds for 48 h, cell viabilities were indicated by the images of cell morphology. Example 219. (FIG. 11) GI50 determination of selected compounds in A375 cells after 48 hours treatment. 0.3 million of H460 cells were seeded in 6-well plate. Next day, cells were treated with 10 uM of drugs for 48 h. DMSO served as negative control. Images of cell morphology were obtained with Olympus IX51 microscope, indicating the cell viability upon treatment.

[1] = test system: P53 and P21 protein levels in H460 and A375 cells; assay: Immunoblotting of p53 and p21 protein levels in H460 and A375 cells; format: cell-based; settings: FIGS. 12-13
Description: Example 220. (FIG. 12) Screening of selected USP2 inhibitors in H460 cells using immunoblotting experiments. The effect of selected USP2 inhibitors (10 μM, 48 h treatment time) on modulating the protein levels of p53 and p21 in H460 cells. Example 221. (FIG. 13) Screening of selected USP2 inhibitors in A375 cells using immunoblotting experiments. The effect of selected USP2 inhibitors with indicated concentration after indicated treatment time on modulating the protein levels of p53 and p21 in A375 cells. Whole cell extracts were prepared with Flag lysis buffer (50 mM Tris-HCl, pH 8.0, 137 mM NaCl, 1 mM NaF, 1 mM NaVO3, 1% Triton X-100, 0.2% sarkosyl, 0.5 mM DTT, 0.5 mM PMSF and 10% glycerol) containing fresh-added protease inhibitors. For cytosolic and nuclear fractions, the cell pellet was firstly incubated with Harvest buffer (10 mM Hepes (pH 8.0), 50 mM NaCl, 0.5 M sucrose, 0.1 mM EDTA, and 0.25% Triton X-100) containing fresh-added protease inhibitors for 5 min on ice followed by centrifugation @120 g for 10 min. The supernatant was cytosolic fraction. After wash twice with buffer A (10 mM Hepes (pH 8.0), 10 mM KCl, 0.1 mM EDTA, and 0.1 mM EGTA), nuclear pellet was lyzed with BC100 (50 mM Tris-HCl, pH 8.0, 100 mM NaCl, 0.2% Triton X-100, and 10% glycerol) containing fresh-added protease inhibitors for 30 min on ice to get the nuclear fraction. Protein concentration was measured with the protein assay dye reagent (Bio-Rad, Cat #5000006) as manufacturer's user guide. 20-60 μg total proteins were loaded to and separated in SDS-PAGE precast gels, then transferred to nitrocellulose membrane. After incubation with primary antibodies for overnight at 4° C., HRP-conjugated secondary antibodies were used, and western blot signals were detected on autoradiographic films after incubating with ECL substrate.

[2] = test system: ACE2 and cyclin D1 protein levels in HepG2 cells; assay: Immunoblotting of ACE2 and cyclin D1 protein levels in HepG2 cells
USP2 = target: T1, USP2 (Homo sapiens, UniProt O75604); assay: biochemical
T1 sequence (O75604 259-605 limits assumed): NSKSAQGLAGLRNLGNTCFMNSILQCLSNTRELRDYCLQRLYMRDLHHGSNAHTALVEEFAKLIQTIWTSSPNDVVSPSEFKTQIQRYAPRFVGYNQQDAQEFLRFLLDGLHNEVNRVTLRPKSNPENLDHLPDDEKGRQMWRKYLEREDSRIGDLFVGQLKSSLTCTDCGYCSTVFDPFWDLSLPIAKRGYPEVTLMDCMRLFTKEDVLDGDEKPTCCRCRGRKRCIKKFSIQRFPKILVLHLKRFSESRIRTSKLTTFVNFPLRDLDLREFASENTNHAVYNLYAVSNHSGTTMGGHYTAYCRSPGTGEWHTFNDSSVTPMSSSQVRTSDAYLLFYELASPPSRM

bioavailability (In vivo mouse PK studies) | SMILES | antiproliferation effect (H460 and A375 cells) | tumor suppressors P53 and P21 protein levels [1] | ACE2 protein level [2] | IC50 (USP2)
100% | CC(C)S(=O)(=O)Nc1cc(F)ccc1C(=O)Nc1nc(-c2ccc(Br)cc2)cs1 [MS1172, N-(4-(4-bromophenyl)thiazol-2-yl)-4-fluoro-2-((1-methylethyl)sulfonamido)benzamide] | antiproliferation effect | elevating | – | –
95% | O=C(Nc1nc(-c2ccc(Br)cc2)cs1)c1ccc(F)cc1NS(=O)(=O)C1CCCCC1 [MS1180, N-(4-(4-bromophenyl)thiazol-2-yl)-2-(cyclohexanesulfonamido)-4-fluorobenzamide] | antiproliferation effect | elevating | – | –
– | Cc1ccc(S(=O)(=O)Nc2cc(F)ccc2C(=O)Nc2nccs2)cc1 [XH153-182, 4-fluoro-2-((4-methylphenyl)sulfonamido)-N-(thiazol-2-yl)benzamide] | antiproliferation effect | elevating | – | –
– | Cc1ccc(S(=O)(=O)Nc2ccc(C(F)(F)F)cc2C(=O)Nc2nc(-c3ccc(Br)cc3)cs2)cc1 [XH161-102 (MS102), N-(4-(4-bromophenyl)thiazol-2-yl)-2-((4-methylphenyl)sulfonamido)-5-(trifluoromethyl)benzamide] | – | – | dose-dependent reduce | 5 µM
– | O=c1c2ccc(F)cc2nc(C(F)(F)F)n1-c1nc(-c2ccc(Br)cc2)cs1 [XH188-135p1, 3-(4-(4-Bromophenyl)thiazol-2-yl)-7-fluoro-2-(trifluoromethyl)quinazolin-4(3H)-one] | antiproliferation effect | elevating | – | –
– | O=C(Nc1nc(-c2ccc(Br)cc2)cs1)c1ccc(F)cc1NC(=O)C(F)(F)F [XH188-135p2, N-(4-(4-Bromophenyl)thiazol-2-yl)-4-fluoro-2-(2,2,2-trifluoroacetamido)benzamide] | antiproliferation effect | elevating | – | –
– | O=C(Nc1nc(-c2ccc(F)cc2)cs1)c1ccc(F)cc1NC(=O)C(F)(F)F [XH198-68p2, 4-Fluoro-N-(4-(4-fluorophenyl)thiazol-2-yl)-2-(2,2,2-trifluoroacetamido)benzamide] | antiproliferation effect | elevating | – | –
– | O=C(Nc1cc(F)ccc1C(=O)Nc1nc(-c2ccc(F)cc2)cs1)c1ccc(C(F)(F)F)cc1 [XH208-93p2, 4-Fluoro-N-(4-(4-fluorophenyl)thiazol-2-yl)-2-(4-(trifluoromethyl)benzamido)benzamide] | antiproliferation effect | elevating | – | –

From US20260242394A1, “USP2 INHIBITORS AND METHODS OF USING THE SAME FOR THE TREATMENT OF DISEASES” (ICAHN SCHOOL OF MEDICINE AT MOUNT SINAI, priority 2023, published 2026)
